From patent US6323230A, “Use of nitrogen heterocyclic aromatic derivatives in the topical treatment of the epithelial tissues diseases” (Geange Ltd., priority 1997, dated 2001)

What was measured:
[1] = Percutaneous absorption / systemically bioavailable dose from cream; type: in vivo; details: cream 0.05-0.1%
[2] = system: ulcerous cholitis (colon); assay: Animal models of ulcerous cholitis; type: in vivo, Wistar rats; details: oral, daily, 1 mg/kg, in sesame oil 2 mg/mL
Description: Dealing with the activity of the compounds object of the present invention, on the inflammatory diseases of the low intestine, some compounds, namely V, VI, X and XI, were tested in animal models of ulcerous cholitis (Wallace J. L. et al., Eur. J. Pharmacol. 257, 249 (1994); Renter B. K. et al. J. Clin. Invest. 98, 2076-2085 (1996).
In particular, compound VI, when administered daily by oral route to Wistar rats, dissolved in sesame oil at the concentration of 2 mg/mL , at the dose of 1 mg/kg, did show a good activity in favouring colon ulcers repair, in re-establishing the normal thickness of the intestinal wall and in decreasing the granulocytes infiltration proper of an inflammatory condition.

SMILES: CCc1ccccc1-c1n[nH]c(-c2cccc(OC)c2)n1 [Compound XIII]
- maximum systemically bioavailable dose ([1]; about 50 g, whole body surface, 25-50 mg): 0.05 to 0.1 mg/kg
- Fa ([1]; in vivo, topical or ocular, of the applied dose): ~10%

SMILES: COc1cccc(-c2nc(-c3ccccc3CO)n[nH]2)c1 [VI]
- decreasing the granulocytes infiltration [2]: good activity
- favouring colon ulcers repair [2]: good activity
- re-establishing the normal thickness of the intestinal wall [2]: good activity
